Test results as given in the supplement of paper PMC11061612.

Key:
[1] = compound: CN(C)CCCOc1ccc(-c2ccc3ncc4c(c3c2)n(C2CCOCC2)c(=O)n4C)cn1 [AZD0156]; conditions: max 3 µM
How it was run: (§1)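 Cancer cell lines in 1536-well plates (7.5 μl DMEM/F12 or RPMI, 10% FBS) were held 24 hours at 37°C and 5% CO2 and then dosed for 72 hours at a final DMSO of typically 0.2%. Viability was taken from CellTiter-Glo 2.0 luminescence, scaled between blank-well and DMSO-well means. Curves were fitted as two-parameter logistic models with a non-linear mixed effects model, from which the single-agent IC50 was taken.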

[2] = compound: Cc1cc2ncnn2cc1Nc1ncc2c(n1)n(C1CCOCC1)c(=O)n2C [AZD7648]; conditions: max 10 µM
How it was run: as §1

[3] = compound: CC(=O)c1c(C)c2cnc(Nc3ccc(N4CCNCC4)cn3)nc2n(C2CCCC2)c1=O [Palbociclib]; conditions: max 10 µM
How it was run: as §1

[4] = compound: CC(=O)Nc1cccc(-n2c(=O)n(C3CC3)c(=O)c3c(Nc4ccc(I)cc4F)n(C)c(=O)c(C)c32)c1 [Trametinib]; conditions: max 1 µM
How it was run: as §1

[5] = compound: Cn1cnc2c(F)c(Nc3ccc(Br)cc3Cl)c(C(=O)NOCCO)cc21 [Selumetinib]; conditions: max 10 µM
How it was run: as §1

[6] = compound: COc1cc2ncnc(Nc3ccc(F)c(Cl)c3)c2cc1OCCCN1CCOCC1 [Gefitinib]; conditions: max 10 µM
How it was run: as §1

[7] = compound: CC1=CN2[C@@H](C1)C=NC3=CC(=C(C=C3C2=O)OC)OCCCCCOC4=C(C=C5C(=C4)N=C[C@@H]6CC(=CN6C5=O)C)OC [SG3199]; conditions: max 0.001 µM
How it was run: as §1

[8] = compound: C1CN(CCC1(C(=O)N[C@@H](CCO)C2=CC=C(C=C2)Cl)N)C3=NC=NC4=C3C=CN4 [Capivasertib]
How it was run: as §1

[9] = compound: CS(=O)(=O)CCNCc1ccc(-c2ccc3ncnc(Nc4ccc(OCc5cccc(F)c5)c(Cl)c4)c3c2)o1 [Lapatinib]; conditions: max 10 µM
How it was run: as §1

[10] = compound: CC1=C(C(=CC=C1)Cl)NC(=O)C2=CN=C(S2)NC3=CC(=NC(=N3)C)N4CCN(CC4)CCO [Dasatinib]; conditions: max 2 µM
How it was run: as §1

[11] = compound: Cc1nc(-c2cn3c(n2)-c2ccc(-c4cnn(C(C)(C)C(N)=O)c4)cc2OCC3)n(C(C)C)n1 [Taselisib]; conditions: max 10 µM
How it was run: as §1

[12] = compound: COc1cc(Nc2ncc3c(n2)-c2ccc(Cl)cc2C(c2c(F)cccc2OC)=NC3)ccc1C(=O)O [Alisertib]; conditions: max 10 µM
How it was run: as §1

[13] = compound: CC(C)n1c(=O)n(C)c2cnc3cc(F)c(-c4ccc(OCCCN5CCCCC5)nc4)cc3c21 [AZD1390]; conditions: max 0.3 µM
How it was run: as §1

[14] = compound: COc1cccc2c1C(=O)c1c(O)c3c(c(O)c1C2=O)C[C@@](O)(C(=O)CO)C[C@@H]3O[C@H]1C[C@H](N)[C@H](O)[C@H](C)O1 [Doxorubicin]; conditions: max 1 µM
How it was run: as §1

[15] = compound: CCN(CCO)CCCOc1ccc2c(Nc3cc(CC(=O)Nc4cccc(F)c4)[nH]n3)ncnc2c1 [AZD2811]; conditions: max 1 µM
How it was run: as §1

[16] = compound: C[C@@H](Oc1cc(-c2cnn(C3CCNCC3)c2)cnc1N)c1c(Cl)ccc(F)c1Cl [Crizotinib]; conditions: max 10 µM
How it was run: as §1

[17] = compound: C[C@@H]1COCCN1C2=NC(=NC(=C2)C3(CC3)[S@](=N)(=O)C)C4=C5C=CNC5=NC=C4 [AZD6738]; conditions: max 10 µM
How it was run: as §1

[18] = compound: CN(CC[C@H](CSC1=CC=CC=C1)NC2=C(C=C(C=C2)S(=O)(=O)NC(=O)C3=CC=C(C=C3)N4CCC(CC4)[C@H](C5=CC=CC=C5C6=CC=C(C=C6)Cl)O)S(=O)(=O)C(F)(F)F)CCO [AZD4320]; conditions: max 1 µM
How it was run: as §1

[19] = compound: Cc1c2c(nn1C)CSCc1cc(n(C)n1)CSc1cc(c3ccccc3c1)OCCCc1c(C(=O)O)n(C)c3c-2c(Cl)ccc13 [AZD5991]; conditions: max 1 µM
How it was run: as §1

[20] = compound: C[C@@H](Nc1cc(F)cc(F)c1)c1cc(C(=O)N(C)C)cc2c(=O)cc(N3CCOCC3)oc12 [AZD8186]; conditions: max 3 µM
How it was run: as §1

[21] = compound: C[C@@H](c1ccc2nccn2c1)n1nnc2ncc(-c3cnn(C)c3)nc21 [Savolitinib]; conditions: max 1 µM
How it was run: as §1

[22] = compound: CC1(C)CCC(CN2CCN(c3ccc(C(=O)NS(=O)(=O)c4ccc(NCC5CCOCC5)c([N+](=O)[O-])c4)c(Oc4cnc5[nH]ccc5c4)c3)CC2)=C(c2ccc(Cl)cc2)C1 [Venetoclax]; conditions: max 1 µM
How it was run: as §1

[23] = compound: CCc1c2c(nc3ccc(O)cc13)-c1cc3c(c(=O)n1C2)COC(=O)[C@]3(O)CC [SN-38]; conditions: max 0.3 µM
How it was run: as §1

[24] = compound: C=CCn1c(=O)c2cnc(Nc3ccc(N4CCN(C)CC4)cc3)nc2n1-c1cccc(C(C)(C)O)n1 [AZD1775]; conditions: max 3 µM
How it was run: as §1

[25] = compound: COc1nnc2ccc(N3CCC(c4ccc(OCCN5CCN(C)C(=O)[C@H]5C)cc4)CC3)nn12 [AZD5153]; conditions: max 1 µM
How it was run: as §1

[26] = compound: COc1cccc(OCCCN)c1-c1cc(Nc2cnc(C#N)cn2)n[nH]1 [Prexasertib]; conditions: max 1 µM
How it was run: as §1

[27] = compound: O=C(c1cc(Cc2n[nH]c(=O)c3ccccc23)ccc1F)N1CCN(C(=O)C2CC2)CC1 [Olaparib]; conditions: max 10 µM
How it was run: as §1

| Cell Line | IC50, cell viability 72 h [1] [µM] | IC50, cell viability 72 h [2] [µM] | IC50, cell viability 72 h [3] [µM] | IC50, cell viability 72 h [4] [µM] | IC50, cell viability 72 h [5] [µM] | IC50, cell viability 72 h [6] [µM] | IC50, cell viability 72 h [7] [µM] | IC50, cell viability 72 h ([8]; max 10 µM) [µM] | IC50, cell viability 72 h [9] [µM] | IC50, cell viability 72 h [10] [µM] | IC50, cell viability 72 h [11] [µM] | IC50, cell viability 72 h [12] [µM] | IC50, cell viability 72 h [13] [µM] | IC50, cell viability 72 h [14] [µM] | IC50, cell viability 72 h [15] [µM] | IC50, cell viability 72 h [16] [µM] | IC50, cell viability 72 h [17] [µM] | IC50, cell viability 72 h [18] [µM] | IC50, cell viability 72 h [19] [µM] | IC50, cell viability 72 h [20] [µM] | IC50, cell viability 72 h [21] [µM] | IC50, cell viability 72 h [22] [µM] | IC50, cell viability 72 h [23] [µM] | IC50, cell viability 72 h [24] [µM] | IC50, cell viability 72 h [25] [µM] | IC50, cell viability 72 h [26] [µM] | IC50, cell viability 72 h [27] [µM] | IC50, cell viability 72 h ([8]; max 3 µM) [µM] |
| --- | --- | --- | --- | --- | --- | --- | --- | --- | --- | --- | --- | --- | --- | --- | --- | --- | --- | --- | --- | --- | --- | --- | --- | --- | --- | --- | --- | --- |
| G-361 (Melanoma) | > 3 | > 10 | > 10 | 0.0146 | 1.54 | > 10 | > 0.001 | > 10 | 8 | > 2 | 7.24 | > 10 | > 0.3 | 0.816 | > 1 | 8.66 | > 10 | > 1 | 0.306 | > 3 | > 1 | > 1 | > 0.3 | 1.59 | 0.277 | 0.149 | > 10 | – |
| HCC1187 (Breast Carcinoma) | > 3 | > 10 | > 10 | > 1 | > 10 | > 10 | > 0.001 | > 10 | > 10 | > 2 | > 10 | 0.114 | > 0.3 | > 1 | 0.0294 | 4.57 | > 10 | > 1 | 0.0877 | > 3 | > 1 | > 1 | > 0.3 | 1.06 | > 1 | 0.362 | > 10 | – |
| HCC1419 (Breast Carcinoma) | > 3 | > 10 | – | > 1 | > 10 | > 10 | > 0.001 | – | – | – | 7.76 | > 10 | > 0.3 | > 1 | > 1 | – | > 10 | > 1 | > 1 | > 3 | > 1 | > 1 | > 0.3 | > 3 | > 1 | > 1 | > 10 | > 3 |
| JHH-4 (Hepatocellular Carcinoma) | > 3 | > 10 | > 10 | 0.118 | > 10 | > 10 | > 0.001 | > 10 | > 10 | 0.173 | > 10 | 6.48 | > 0.3 | > 1 | > 1 | > 10 | > 10 | > 1 | > 1 | > 3 | > 1 | > 1 | 0.031 | > 3 | > 1 | 0.912 | > 10 | – |
